Data on two compounds can be found in patent publication US20190016689A1, “NOVEL FLUORINATED QUINAZOLINE DERIVATIVES AS EGFR INHIBITORS” (TRILLIUM THERAPEUTICS INC., priority 2016, published 2019).

The nature of one series: in vitro. Particulars: human, Caco-2, pH 7.4. On the procedure: (§1) At this stage of growth, cell monolayers were fully polarized and differentiated.
(§2) The permeability assay buffer was Hanks Balanced Salt Solution containing 10 mM HEPES and 15 mM glucose at a pH of 7.4. The dosing buffer contained 5 μM metoprolol (positive control), 5 μM atenolol (negative control) and 100 μM lucifer yellow. The buffer in the receiver chamber also contained 1% bovine serum albumin (BSA). The dosing solution concentration was 5 μM in the assay buffer. Digoxin (20 μM) was used as Pgp substrate control.
(§3) The known Pgp inhibitor was co-dosed at 50 μM with compound at 5 μM.
(§4) Cell monolayers were dosed on the apical side (A-to-B) or basolateral side (B-to-A) and incubated at 37° C. in a shaker (65 rpm). Samples were taken from the donor and receiver chambers at 120 minutes. Each determination was performed in duplicate.
(§5) Narrow-window mass extraction LC/MS analysis was performed for all samples from this study using a Waters Xevo quadrupole time-of-flight (QTof) mass spectrometer, to determine relative peak areas of parent compound. The percent of transported drug was calculated based on these peak areas, relative to the initial, dosing concentration.

The next series has as its target CYP 3A4 (Homo sapiens, UniProt P08684). The series can be described thus: CYP450 inhibition. The series is classed as in vitro ADME. Particulars: Testosterone.
Another series deals with P-gp. As to the kind of experiment: in vitro. To be noted: human, Caco-2, pH 7.4. How it is done:
as §1, §2, §3, §4, §5

In the next series the test system is hepatocytes. The series can be described thus: Metabolic stability (hepatocytes). It counts as in vitro ADME. To be noted: 1 μM. On the procedure: a) Place incubation medium (William's E Medium supplemented with GlutaMAX) and hepatocyte thawing medium in a 37° C. water bath, and allow warming for at least 15 minutes prior to use. b) Remove a vial of cryopreserved hepatocytes from storage, ensuring that vials remain at cryogenic temperatures until thawing process ensues. Thaw the cells by placing the vial in a 37° C. water bath and gently shaking the vials for 2 minutes. After thawing is completed, spray vial with 70% ethanol, transfer the vial to a biosafety cabinet. c) Use wide-bore pipette tip to transfer hepatocytes into 50 mL conical tube containing thawing medium. Place the 50 mL conical tube into a centrifuge and spin at 100 g for 10 minutes. Upon completion of spin, aspirate thawing medium and resuspend hepatocytes in enough incubation medium to yield ˜1.5×10^6 cells/mL. d) Using a Trypan Blue exclusion, count cells and determine the viable cell density. Cells with poor viability (<75% viability) are not acceptable for use. Dilute cells with incubation medium to a working cell density of 0.5×10^6 viable cells/mL. e) A portion of the hepatocytes at 0.5×10^6 viable cells/mL was boiled for 5 min prior to adding to the plate as negative control to eliminate the enzymatic activity so that little or no substrate turnover should be observed. The boiled hepatocytes are used to prepare negative control samples, which used to exclude the misleading factor that resulted from instability of chemical itself. Negative control wells are prepared in duplicate.
a) Pipette 198 μL of hepatocytes into each wells of a 96-well non-coated plate. Place the plate in the CO2 incubator at 37° C. on an orbital shaker to allow the hepatocytes to warm for 10 minutes. b) Pipette 2 μL of the 100 μM test compounds or positive control into respective wells of the 96-well plate to start the reaction. c) Return the plate to the incubator and place on an orbital shaker with a shaking speed of 150 rpm. The reaction for each compound will be performed in duplicate.
a) Remove 25 μL aliquots of reaction mixture at time points of 0, 15, 30, 60, 90 and 120 minutes. b) The aliquots are then mixed with 6 volumes (150 μL) of acetonitrile containing internal standards (IS: 100 nM alprazolam, 200 nM labetalol, and 2 μM ketoprofen) to terminate the reaction. Centrifuge the plate for 20 minutes at 3,800 g. Aliquots of 100 μL of the supernatants will be mixed with 100 μL ultrapure water and used for LC/MS/MS analysis.

Chain of CYP 3A4 (P08684 whole entry): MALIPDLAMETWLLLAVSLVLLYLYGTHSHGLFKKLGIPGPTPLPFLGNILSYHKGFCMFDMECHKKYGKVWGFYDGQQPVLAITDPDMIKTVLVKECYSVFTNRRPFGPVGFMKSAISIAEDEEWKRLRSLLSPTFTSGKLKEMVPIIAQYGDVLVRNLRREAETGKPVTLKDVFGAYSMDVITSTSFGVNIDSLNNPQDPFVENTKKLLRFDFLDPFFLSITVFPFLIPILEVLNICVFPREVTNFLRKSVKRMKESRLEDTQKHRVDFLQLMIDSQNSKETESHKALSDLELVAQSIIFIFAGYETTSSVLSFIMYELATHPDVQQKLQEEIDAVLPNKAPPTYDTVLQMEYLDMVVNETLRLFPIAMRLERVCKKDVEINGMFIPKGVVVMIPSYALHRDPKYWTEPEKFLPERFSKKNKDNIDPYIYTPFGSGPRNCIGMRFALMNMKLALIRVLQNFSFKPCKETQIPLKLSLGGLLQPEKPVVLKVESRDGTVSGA
Protocol for CYP 3A4: Prepare stock solutions of the test compound and positive control compounds described in Table 8 in DMSO at 0, 0.2, 1, 2, 10, 50, 200, 2000 and 10000 μM. Transfer 1 μL of the stock solutions to the Incubation Plate. The final concentrations of test compound or positive control compound are 0, 0.001, 0.005, 0.01, 0.05, 0.25, 1, 10 and 50 μM. All experiments are performed in duplicate.

As to `CN(C)C/C=C/C(=O)Nc1cc2c(Nc3ccc(F)c(Cl)c3)ncnc2cc1O[C@H]1CCOC1` [Afatinib, reference compound], in “in vitro”, the apical-to-basolateral permeability (Papp A→B) (usually the apparent permeability from the apical to the basolateral side of a cell layer) at 120 min, 5 µM was 0.81 ×10⁻⁶ cm/s and the basolateral-to-apical permeability (Papp B→A) (usually the apparent permeability from the basolateral to the apical side of a cell layer) at 120 min, 5 µM turned out to be 16 ×10⁻⁶ cm/s.

As for `CN(C)C/C=C/C(=O)Nc1cc2c(Nc3cccc(Cl)c3F)ncnc2cc1OCCOC(F)F.O=C(O)/C=C\C(=O)O` [Example I-5-MA, (E)-N-[4-(3-chloro-2-fluoro-anilino)-7-[2-(difluoromethoxy)ethoxy]quinazolin-6-yl]-4-(dimethylamino)but-2-enamide dimaleic acid salt], the IC50 (in general, the midpoint of a concentration-inhibition curve) against CYP 3A4 was 42 µM. This compound also displayed a Papp A→B at 120 min, 5 µM in “in vitro” of 13.5 ×10⁻⁶ cm/s. In addition, the Papp B→A at 120 min, 5 µM in “in vitro” was 6.52 ×10⁻⁶ cm/s. Besides, the efflux ratio (commonly a quotient of directional permeabilities that is used to spot active efflux) at 120 min, 5 µM with P-gp amounted to 0.48. The “% Remaining @ 120 min” value amounted to 47.29% with hepatocytes (Dog hepatocytes); 82.95% in the series with hepatocytes (Human hepatocytes); 21.97% in the series on hepatocytes (Monkey hepatocytes); 36.27% in the series with hepatocytes (Mouse hepatocytes); 59.08% with hepatocytes (Rat hepatocytes).
